# Assay results as given in article PMC12191924, “A new naphthalene-based fluorogenic substrate for cytochrome P450 4A11” (Biochemical Journal, 2025).
# Several values for one entry are separate records, joined by “and”; a condition that tells them apart may be missing. Equal entries are not always repeated.
# Tests used:
# [1] = target: T1, CYP1A2 (Homo sapiens, UniProt P05177); assay: MONACRA demethylation by recombinant CYP1A2 in Supersomes, high-throughput fluorimetric assay; type: biochemical; parameters: purchased Gentest (Supersomes), now a part of Discovery Life Sciences; CYP1A2 is not in the lot list; host or cells: insect cells, recombinant baculovirus
# T1 sequence (P05177 2-516 limits assumed): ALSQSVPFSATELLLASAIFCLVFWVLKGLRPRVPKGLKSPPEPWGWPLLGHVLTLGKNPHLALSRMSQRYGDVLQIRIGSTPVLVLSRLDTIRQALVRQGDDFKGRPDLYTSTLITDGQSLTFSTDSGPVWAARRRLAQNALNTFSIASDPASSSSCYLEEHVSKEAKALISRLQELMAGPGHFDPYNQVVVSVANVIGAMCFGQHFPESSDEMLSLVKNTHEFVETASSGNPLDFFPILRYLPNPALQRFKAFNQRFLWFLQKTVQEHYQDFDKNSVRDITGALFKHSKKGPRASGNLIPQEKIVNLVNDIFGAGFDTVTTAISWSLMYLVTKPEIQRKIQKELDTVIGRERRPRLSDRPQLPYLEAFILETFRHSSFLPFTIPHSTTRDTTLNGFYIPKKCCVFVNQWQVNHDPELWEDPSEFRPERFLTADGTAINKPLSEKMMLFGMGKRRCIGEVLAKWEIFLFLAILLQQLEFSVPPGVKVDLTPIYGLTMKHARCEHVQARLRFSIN
# Method: (§1) Based on these observations, we developed a high-throughput automated assay applicable for studying SSPs of MONACRA metabolism by microsomal P450 enzymes. In this procedure, the incubation mixtures containing an NADPH-generating system and various substrate concentrations are placed in a multiwell plate and preincubated at 30°C in a thermostated shaker. The reaction is started by adding microsomal suspension to the final concentration of 0.3–1 mg/ml of microsomal protein or 0.02–0.1 µM of recombinant P450 enzymes in Supersomes. Following the incubation for 20 min at 30°C, the reaction is quenched by adding trichloroacetic acid (final concentration […]). After supplementing the wells with Na-glycine buffer (pH 10.4, final concentration 2.1 M), the plates are subjected to scanning the fluorescence spectra with excitation at 375 nm. This assay, which is described in detail in Materials and Methods, allows reliable detection of the concentrations of HONACRA as low as 0.1 µM.
# (§2) We used the high-throughput activity assay described above to probe MONACRA metabolism by 16 human microsomal P450 enzymes, namely CYP1A2, CYP2A6, CYP2B6, CYP2C8, CYP2C9, CYP2C19, CYP2D6, CYP2E1, CYP2J2, CYP3A4, CYP3A5, CYP4A11, CYP4F2, CYP4F3A, CYP4F3B, and CYP4F12. […]
# [2] = target: T2, CYP4A11 (Homo sapiens, UniProt Q02928); assay: MONACRA demethylation by recombinant CYP4A11 in Supersomes, high-throughput fluorimetric assay; type: biochemical; parameters: purchased Gentest (Huntsville, AL), now a part of Discovery Life Sciences lot 2402280; host or cells: insect cells, recombinant baculovirus; settings: Michaelis–Menten fit, ± = confidence interval P=0.05
# T2 sequence (Q02928 5-519): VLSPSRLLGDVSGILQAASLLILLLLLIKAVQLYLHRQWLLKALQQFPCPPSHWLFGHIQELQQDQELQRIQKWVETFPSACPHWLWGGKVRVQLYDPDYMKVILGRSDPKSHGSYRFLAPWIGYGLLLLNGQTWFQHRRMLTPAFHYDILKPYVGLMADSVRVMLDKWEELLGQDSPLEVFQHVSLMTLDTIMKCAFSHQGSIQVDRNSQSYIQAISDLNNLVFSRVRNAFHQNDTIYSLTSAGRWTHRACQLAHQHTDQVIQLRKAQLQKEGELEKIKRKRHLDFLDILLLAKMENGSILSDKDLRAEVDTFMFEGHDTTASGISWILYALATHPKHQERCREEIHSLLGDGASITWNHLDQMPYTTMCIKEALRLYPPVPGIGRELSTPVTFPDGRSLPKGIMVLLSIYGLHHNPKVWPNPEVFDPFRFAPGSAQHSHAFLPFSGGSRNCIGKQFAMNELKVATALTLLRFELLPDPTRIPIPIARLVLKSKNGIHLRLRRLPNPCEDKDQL
# Method: as §1, §2
structure (smiles),measurement,setting,value
"COc1ccc2cc(C=CC(=O)O)ccc2c1 [MONACRA, 3-(6-methoxynaphthalen-2-yl)acrylic acid]",Vmax,[1]; substrate inhibition equation,43.7 ± 5.9 min⁻¹
same,Ksi (substrate inhibition constant),[1]; substrate inhibition equation (eqn 2),650 ± 200 µM and 648 ± 197 µM
same,Vmax,[2],66.8 ± 17.5 min⁻¹
